This assay concerns Enterobacter cloacae NB25055 (CMY-2). The experiment in a line: Potentiation of piperacillin in beta-lactam resistant clinical isolate. The assay is classed as cell-based. Particulars: Pip + BLI at 2 μg/mL. The method, then: MICs were determined by the broth microdilution method in accordance with Clinical and Laboratories Institute (CLSI) guidelines. In brief, fresh overnight bacterial cultures were suspended in sterile saline, and adjusted to a 0.5 McFarland turbidity standard. Bacterial suspensions were then diluted in cation adjusted Mueller-Hinton Broth (MHB II; BBL) to yield a final inoculum of approximately 5×10^5 colony-forming units (CFU)/mL. A master plate of antibiotics was prepared at a concentration equivalent to hundred-fold the highest desired final concentration in 100% dimethyl sulfoxide (DMSO). The master antibiotic plate was then diluted by serial twofold dilution with a multichannel pipette. The resulting dilution series of compounds were diluted 1:10 with sterile water or a solution of beta-lactamase inhibitor prepared at a concentration equivalent to eleven-fold the desired final concentration in deionized water leading to a 10% DMSO final concentration. A volume of 10 μL of the drug dilution series was transferred to 96-well assay plates. Assay plates were inoculated with 90 μL of bacterial suspensions and incubated at 35° C. for 20 hrs. The assay plates were read using a microtiter plate reader (Molecular Devices) at 600 nm as well as by visual observation with a reading mirror. The lowest concentration of the compound that prevented visible growth was recorded as the MIC. Performance of the assay was monitored by testing aztreonam against laboratory quality control strains in accordance with guidelines of the CLSI.
Synergy or potentiation of beta-lactam antibiotics through inhibition of Q-lactamases was assessed against an isogenic panel of E. coli strains, each expressing a unique beta-lactamase, and against clinical strains.

Each structure is given as a SMILES string.

As to `O=C1NC[C@@H]2C[C@@H]3CN(C(=O)N3OS(=O)(=O)[O-])[C@H]12.[Na+]` [Example 1, Sodium (4R,5aS,8aS)-2,8-dioxohexahydro-2H-1,4-methanopyrrolo[3,4-d][1,3]diazepin-3(4H)-yl sulfate], the “Activity of piperacillin with beta-lactamase inhibitor” value worked out at 4 µg/mL.

For the origin of these results see patent US10065957B2, “Beta-lactamase inhibitors” (Novartis AG, priority 2016, dated 2018).
